Results on 3 molecules are retold here after paper PMC9780108, “An intrinsically disordered antimicrobial peptide dendrimer from stereorandomized virtual screening” (Cell Reports. Physical Science, 2022).

Converted amounts (≈) assume the structure as drawn. Positions of bridges follow the written chain, without caps; N, C: chain ends. Non-standard residues stand in square brackets, D forms with d. Residues, ends and D or L forms follow the SMILES beside them. Groups on a side chain read outwards from the residue. Chains are numbered I, II in the order given. *: point of attachment. X3 = CC(C)C[C@H](NC(=O)CCCCCN)C(=O)NCCCC[C@H](NC(=O)[C@H](CC(C)C)NC(=O)CCCCCN)C(=O)*; Ahx = NCCCCCC(=O)O Where only a bound is given, the exact number is not on record here.

One experiment relates to HEK293 cell line. Format: cell-based. To be noted: 48 h. As to the method:
HEK 293 cell line were cultured and maintained in DMEM (Dulbeccos modified Eagle
medium, Sigma Aldrich) supplemented with 10% FBS (Sigma Aldrich) and 1%
penicillin/streptomycin. Cells were incubated in a humidified incubator at 37°C in the presence
HEK 293 cell were seeded into 96 well plates at the density of 2 × 10^3 cells/well and incubated
in DMEM containing 10% FBS for 10-14 hours at 37°C in the presence of 5% CO2. The next
day, stock solution of compounds were prepared at concentration of 2 mg/mL in DMEM
containing 10% FBS. 1/2 or 1/3 serial dilution of the peptide dendrimers from 2 mg/mL or 200
µg/mL were performed in DMEM containing 10% FBS. The medium was removed from cell
culture and replaced with the compounds at different concentration after washing with PBS.
The cells were incubated in DMEM containing 10% FBS at 37°C in the presence of 5% CO 2.
Negative control was untreated cell culture without compounds and blank control was wells
without cell but only medium. After 48 hours, a final concentration of 10% AlamarBlue®
(Thermo Fisher Scientific, Reinach, CH) was added to each well . The cells were incubated for
3-5 hours at 37°C with 5% CO 2. The fluorescence was then measured on a Tecan Infinite
M1000 Pro plate reader at λex = 560 nm and λem = 590 nm. The value was normalized
according to the untreated cells.

The test system of a further experiment is E. coli W3110. To be noted: for MIC at pH 5.0, E. coli W3110: W3110, pH 5; for MIC at pH 7.4, E. coli W3110: W3110, pH 7.4; for MIC at pH 8.0, E. coli W3110: W3110, pH 8.
The next experiment deals with A. baumannii ATCC 19606. To be noted: for MIC at pH 5.0, A. baumannii ATCC 19606: ATCC 19606, pH 5; for MIC at pH 7.4, A. baumannii ATCC 19606: ATCC 19606, pH 7.4; for MIC at pH 8.0, A. baumannii ATCC 19606: ATCC 19606, pH 8.
The next experiment has as its system P. aeruginosa PAO1. To be noted: for MIC at pH 5.0, P. aeruginosa PAO1: PAO1, pH 5; for MIC at pH 7.4, P. aeruginosa PAO1: PAO1, pH 7.4; for MIC at pH 8.0, P. aeruginosa PAO1: PAO1, pH 8.
The next experiment concerns K. pneumoniae NCTC 418. To be noted: for MIC at pH 5.0, K. pneumoniae NCTC 418: NCTC 418, pH 5; for MIC at pH 7.4, K. pneumoniae NCTC 418: NCTC 418, pH 7.4; for MIC at pH 8.0, K. pneumoniae NCTC 418: NCTC 418, pH 8.
In experiment [1] the test system is S aureus COL (methicillin-resistant Staphylococcus aureus). To be noted: for MIC at pH 5.0, S aureus COL: COL (methicillin-resistant, pH 5); for MIC at pH 7.4, S aureus COL: COL (methicillin-resistant, pH 7.4); for MIC at pH 8.0, S aureus COL: COL (methicillin-resistant, pH 8).

One may read the MIC as the smallest concentration in the dilution series that meets the test's criterion for growth inhibition. As for `CC(C)C[C@H](NC(=O)CCCCCN)C(=O)NCCCC[C@H](NC(=O)[C@H](CC(C)C)NC(=O)CCCCCN)C(=O)N[C@@H](CC(C)C)C(=O)NCCCC[C@H](NC(=O)[C@H](CC(C)C)NC(=O)[C@H](CCCCNC(=O)[C@H](CC(C)C)NC(=O)CCCCCN)NC(=O)[C@H](CC(C)C)NC(=O)CCCCCN)C(=O)N[C@@H](CCCCN)C(=O)N[C@@H](CC(C)C)C(=O)N[C@@H](CC(C)C)C(=O)NCCCC[C@H](NC(=O)[C@H](CC(C)C)NC(=O)[C@H](CC(C)C)NC(=O)[C@H](CCCCN)NC(=O)[C@H](CCCCNC(=O)[C@H](CC(C)C)NC(=O)[C@H](CCCCNC(=O)[C@H](CC(C)C)NC(=O)CCCCCN)NC(=O)[C@H](CC(C)C)NC(=O)CCCCCN)NC(=O)[C@H](CC(C)C)NC(=O)[C@H](CCCCNC(=O)[C@H](CC(C)C)NC(=O)CCCCCN)NC(=O)[C@H](CC(C)C)NC(=O)CCCCCN)C(=O)N[C@@H](CC(C)C)C(=O)N[C@@H](CCCCN)C(=O)N[C@@H](CCCCN)C(N)=O` [L-aX22] (I: H-[Ahx]LK([Leu-Ahx])LK([Leu-X3])KLLKLKK-NH2 / II: H-[Ahx]LK([Leu-Ahx])LK([Leu-X3])KLL; amide I:9-II:C), the “IC50 HEK293” value in the experiment on HEK293 cell line came to 24 ± 3 µg/mL (≈ 5.64 µM). Besides, in the experiment on E. coli W3110, the minimal inhibitory concentration (MIC) at pH 5.0, E. coli W3110 is listed as 2 μg/mL; the minimal inhibitory concentration (MIC) at pH 7.4, E. coli W3110 turned out to be 4 μg/mL; the minimal inhibitory concentration (MIC) at pH 8.0, E. coli W3110 was determined as 4 μg/mL. In addition, in the experiment on A. baumannii ATCC 19606, the minimal inhibitory concentration (MIC) at pH 5.0, A. baumannii ATCC 19606 was 2 μg/mL; the “MIC at pH 7.4, A. baumannii ATCC 19606” value was 4 μg/mL; the “MIC at pH 8.0, A. baumannii ATCC 19606” value stood at 4 μg/mL. In addition, in the experiment on P. aeruginosa PAO1, the “MIC at pH 5.0, P. aeruginosa PAO1” value was determined as 16 μg/mL; the minimum inhibitory concentration (MIC) at pH 7.4, P. aeruginosa PAO1 is given as 8 μg/mL; the “MIC at pH 8.0, P. aeruginosa PAO1” value worked out at 16 μg/mL. Moreover, in the experiment on K. pneumoniae NCTC 418, the “MIC at pH 5.0, K. pneumoniae NCTC 418” value turned out to be 64 μg/mL; the “MIC at pH 7.4, K. pneumoniae NCTC 418” value was determined as 8 μg/mL; the “MIC at pH 8.0, K. pneumoniae NCTC 418” value is 8 μg/mL. In addition, in experiment [1], the “MIC at pH 5.0, S aureus COL” value is on record as 64 μg/mL; the minimum inhibitory concentration (MIC) at pH 7.4, S aureus COL worked out at 16 μg/mL; the “MIC at pH 8.0, S aureus COL” value is 4 μg/mL.
In the case of `CC(C)C[C@H](NC(=O)[C@H](CC(C)C)NC(=O)[C@H](CC(C)C)NC(=O)[C@H](CCCCNC(=O)[C@H](CC(C)C)NC(=O)[C@H](CC(C)C)NC(=O)[C@H](CCCCNC(=O)[C@H](CCCCN)NC(=O)[C@H](CC(C)C)NC(=O)[C@H](CCCCNC(=O)[C@H](CC(C)C)NC(=O)[C@@H](N)CCCCN)NC(=O)[C@H](CC(C)C)NC(=O)[C@@H](N)CCCCN)NC(=O)[C@H](CCCCN)NC(=O)[C@H](CC(C)C)NC(=O)[C@H](CCCCNC(=O)[C@H](CC(C)C)NC(=O)[C@@H](N)CCCCN)NC(=O)[C@H](CC(C)C)NC(=O)[C@@H](N)CCCCN)NC(=O)[C@H](CC(C)C)NC(=O)[C@H](CC(C)C)NC(=O)[C@H](CCCCNC(=O)[C@H](CCCCN)NC(=O)[C@H](CC(C)C)NC(=O)[C@H](CCCCNC(=O)[C@H](CC(C)C)NC(=O)[C@@H](N)CCCCN)NC(=O)[C@H](CC(C)C)NC(=O)[C@@H](N)CCCCN)NC(=O)[C@H](CCCCN)NC(=O)[C@H](CC(C)C)NC(=O)[C@H](CCCCNC(=O)[C@H](CC(C)C)NC(=O)[C@@H](N)CCCCN)NC(=O)[C@H](CC(C)C)NC(=O)[C@@H](N)CCCCN)C(N)=O` [L-X18] (HELM PEPTIDE1{K.L.K.L.K.K.L.L.K.L.L.L.[am]}|PEPTIDE2{K.L}|PEPTIDE3{K.L.K.L.K.K.L.L}|PEPTIDE4{K.L}|PEPTIDE5{K.L.K.L.K}|PEPTIDE6{K.L}|PEPTIDE7{K.L.K.L.K}|PEPTIDE8{K.L}$PEPTIDE1,PEPTIDE2,3:R3-2:R2|PEPTIDE3,PEPTIDE4,3:R3-2:R2|PEPTIDE5,PEPTIDE6,3:R3-2:R2|PEPTIDE7,PEPTIDE8,3:R3-2:R2|PEPTIDE1,PEPTIDE7,6:R3-5:R2|PEPTIDE1,PEPTIDE3,9:R3-8:R2|PEPTIDE3,PEPTIDE5,6:R3-5:R2$$$V2.0), the “IC50 HEK293” value with HEK293 cell line came out at 52 ± 4 µg/mL (≈ 11.3 µM). In the experiment with E. coli W3110, the minimal inhibitory concentration (MIC) at pH 5.0, E. coli W3110 is 16/16/16 μg/mL; the minimal inhibitory concentration (MIC) at pH 7.4, E. coli W3110 is given as 16/16/16 μg/mL; the minimal inhibitory concentration (MIC) at pH 8.0, E. coli W3110 is 16/16/16 μg/mL. In addition, in the experiment with A. baumannii ATCC 19606, the “MIC at pH 5.0, A. baumannii ATCC 19606” value was 16 μg/mL; the minimum inhibitory concentration (MIC) at pH 7.4, A. baumannii ATCC 19606 amounted to 32 μg/mL; the minimal inhibitory concentration (MIC) at pH 8.0, A. baumannii ATCC 19606 is 16 μg/mL. Also, in the experiment on P. aeruginosa PAO1, the “MIC at pH 5.0, P. aeruginosa PAO1” value was 16 μg/mL; the minimum inhibitory concentration (MIC) at pH 7.4, P. aeruginosa PAO1 amounted to 32 μg/mL; the “MIC at pH 8.0, P. aeruginosa PAO1” value worked out at 16 μg/mL. Also, in the experiment with K. pneumoniae NCTC 418, the “MIC at pH 5.0, K. pneumoniae NCTC 418” value is greater than 64 μg/mL; the “MIC at pH 7.4, K. pneumoniae NCTC 418” value is greater than 64 μg/mL; the minimum inhibitory concentration (MIC) at pH 8.0, K. pneumoniae NCTC 418 came to 32 μg/mL. Also, in experiment [1], the “MIC at pH 5.0, S aureus COL” value was greater than 64 μg/mL; the minimum inhibitory concentration (MIC) at pH 7.4, S aureus COL was greater than 64 μg/mL; the “MIC at pH 8.0, S aureus COL” value was 16 μg/mL.
On to `CC(C)C[C@H](NC(=O)[C@H](CC(C)C)NC(=O)[C@H](CC(C)C)NC(=O)[C@H](CCCCNC(=O)[C@H](CC(C)C)NC(=O)[C@H](CC(C)C)NC(=O)[C@H](CCCCNC(=O)[C@H](CCCCN)NC(=O)[C@H](CC(C)C)NC(=O)[C@H](CCCCNC(=O)[C@H](CC(C)C)NC(=O)CCCCCN)NC(=O)[C@H](CC(C)C)NC(=O)CCCCCN)NC(=O)[C@H](CCCCN)NC(=O)[C@H](CC(C)C)NC(=O)[C@H](CCCCNC(=O)[C@H](CC(C)C)NC(=O)CCCCCN)NC(=O)[C@H](CC(C)C)NC(=O)CCCCCN)NC(=O)[C@H](CC(C)C)NC(=O)[C@H](CC(C)C)NC(=O)[C@H](CCCCNC(=O)[C@H](CCCCN)NC(=O)[C@H](CC(C)C)NC(=O)[C@H](CCCCNC(=O)[C@H](CC(C)C)NC(=O)CCCCCN)NC(=O)[C@H](CC(C)C)NC(=O)CCCCCN)NC(=O)[C@H](CCCCN)NC(=O)[C@H](CC(C)C)NC(=O)[C@H](CCCCNC(=O)[C@H](CC(C)C)NC(=O)CCCCCN)NC(=O)[C@H](CC(C)C)NC(=O)CCCCCN)C(N)=O` [L-aX18] (I: H-[Ahx]LK([Leu-Ahx])LKK([Lys-Leu-X3])LLKLLL-NH2 / II: H-[Ahx]LK([Leu-Ahx])LKK([Lys-Leu-X3])LL; amide I:9-II:C), for which the “IC50 HEK293” value in the experiment on HEK293 cell line turned out to be 14 ± 0.6 µg/mL (≈ 3.12 µM). Moreover, in the experiment with E. coli W3110, the “MIC at pH 5.0, E. coli W3110” value was 32 μg/mL; the “MIC at pH 7.4, E. coli W3110” value was greater than 64 μg/mL; the “MIC at pH 8.0, E. coli W3110” value is reported as 32 μg/mL. Also, in the experiment with A. baumannii ATCC 19606, the “MIC at pH 5.0, A. baumannii ATCC 19606” value is given as 32 μg/mL; the minimum inhibitory concentration (MIC) at pH 7.4, A. baumannii ATCC 19606 was determined as 64 μg/mL; the minimal inhibitory concentration (MIC) at pH 8.0, A. baumannii ATCC 19606 is recorded as 32 μg/mL. Further, in the experiment with P. aeruginosa PAO1, the minimal inhibitory concentration (MIC) at pH 5.0, P. aeruginosa PAO1 is given as 64/>64/64 μg/mL; the “MIC at pH 7.4, P. aeruginosa PAO1” value is listed as 64/>64/64 μg/mL; the minimal inhibitory concentration (MIC) at pH 8.0, P. aeruginosa PAO1 is 64/>64/64 μg/mL. Also, in the experiment on K. pneumoniae NCTC 418, the “MIC at pH 5.0, K. pneumoniae NCTC 418” value is >64/>64/>64 μg/mL; the minimum inhibitory concentration (MIC) at pH 7.4, K. pneumoniae NCTC 418 was >64/>64/>64 μg/mL; the “MIC at pH 8.0, K. pneumoniae NCTC 418” value was >64/>64/>64 μg/mL. Moreover, in experiment [1], the “MIC at pH 5.0, S aureus COL” value is reported as greater than 64 μg/mL; the “MIC at pH 7.4, S aureus COL” value is given as greater than 64 μg/mL; the “MIC at pH 8.0, S aureus COL” value is 32 μg/mL.
